According to patent publication US20230278995A1, “1,3,4-OXADIAZOLE DERIVATIVE COMPOUNDS AS HISTONE DEACETYLASE 6 INHIBITOR, AND THE PHARMACEUTICAL COMPOSITION COMPRISING THE SAME” (CHONG KUN DANG PHARMACEUTICAL CORP., priority 2020, published 2023):

How the values were obtained:
human recombinant HDAC1 = target: T1, human recombinant HDAC1 (Homo sapiens, UniProt Q13547); experiment: HDAC enzyme activity inhibition assay (HDAC Fluorimetric Drug Discovery Kit), HDAC1; format: biochemical; conditions: human recombinant HDAC1, Fluor de Lys-SIRT1 substrate, 30° C. 60 minutes
T1 construct: purchased Enzo Life Sciences, Inc. BML-SE456
Outline: (§1)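 The preceding reaction ran 60 min at 30 °C with 0.3 μg recombinant human enzyme, HDAC1 or HDAC6 under an identical protocol, and 10 μM Fluor de Lys-SIRT1 substrate, across 5-fold diluted compound.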

human recombinant HDAC6 = target: T2, human recombinant HDAC6 (Homo sapiens, UniProt Q9UBN7); experiment: HDAC enzyme activity inhibition assay (HDAC Fluorimetric Drug Discovery Kit), HDAC6; format: biochemical; conditions: for HDAC6 selectivity (fold): HDAC1 vs HDAC6; for IC50: human recombinant HDAC6, same protocol as HDAC1
T2 construct: purchased Calbiochem Inc. 382180
T2 sequence (Q9UBN7 1-1215): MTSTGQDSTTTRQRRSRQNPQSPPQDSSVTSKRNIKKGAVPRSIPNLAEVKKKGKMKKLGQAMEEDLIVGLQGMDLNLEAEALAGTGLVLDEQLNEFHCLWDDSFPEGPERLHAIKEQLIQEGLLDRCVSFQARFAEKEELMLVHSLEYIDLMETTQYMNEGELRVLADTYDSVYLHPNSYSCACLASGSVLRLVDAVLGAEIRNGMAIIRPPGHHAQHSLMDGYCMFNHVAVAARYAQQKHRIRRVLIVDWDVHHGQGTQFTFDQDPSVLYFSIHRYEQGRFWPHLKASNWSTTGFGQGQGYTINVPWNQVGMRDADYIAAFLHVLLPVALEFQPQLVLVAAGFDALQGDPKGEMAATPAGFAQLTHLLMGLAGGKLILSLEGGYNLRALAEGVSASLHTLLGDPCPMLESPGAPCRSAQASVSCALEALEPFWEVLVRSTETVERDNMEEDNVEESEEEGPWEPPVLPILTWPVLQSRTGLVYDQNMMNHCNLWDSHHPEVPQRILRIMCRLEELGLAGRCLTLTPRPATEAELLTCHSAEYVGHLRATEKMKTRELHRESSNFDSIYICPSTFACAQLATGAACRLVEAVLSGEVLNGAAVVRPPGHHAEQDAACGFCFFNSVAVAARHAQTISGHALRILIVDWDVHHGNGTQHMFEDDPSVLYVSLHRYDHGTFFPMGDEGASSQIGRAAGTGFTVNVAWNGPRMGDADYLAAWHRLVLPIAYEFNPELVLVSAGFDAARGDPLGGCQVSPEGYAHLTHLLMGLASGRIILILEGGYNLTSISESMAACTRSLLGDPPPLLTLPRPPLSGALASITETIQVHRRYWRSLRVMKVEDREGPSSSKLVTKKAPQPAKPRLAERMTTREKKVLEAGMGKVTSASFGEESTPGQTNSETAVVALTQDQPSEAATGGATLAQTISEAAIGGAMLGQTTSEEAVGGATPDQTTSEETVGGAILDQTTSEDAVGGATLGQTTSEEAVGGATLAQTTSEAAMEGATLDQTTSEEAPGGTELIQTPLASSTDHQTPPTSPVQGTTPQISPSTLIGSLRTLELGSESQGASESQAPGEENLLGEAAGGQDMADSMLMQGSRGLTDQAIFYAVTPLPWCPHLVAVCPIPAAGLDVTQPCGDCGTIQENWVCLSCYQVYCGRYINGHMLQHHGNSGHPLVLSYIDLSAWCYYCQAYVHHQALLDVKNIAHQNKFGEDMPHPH
Outline: as §1

T1 sequence (Q13547 whole entry): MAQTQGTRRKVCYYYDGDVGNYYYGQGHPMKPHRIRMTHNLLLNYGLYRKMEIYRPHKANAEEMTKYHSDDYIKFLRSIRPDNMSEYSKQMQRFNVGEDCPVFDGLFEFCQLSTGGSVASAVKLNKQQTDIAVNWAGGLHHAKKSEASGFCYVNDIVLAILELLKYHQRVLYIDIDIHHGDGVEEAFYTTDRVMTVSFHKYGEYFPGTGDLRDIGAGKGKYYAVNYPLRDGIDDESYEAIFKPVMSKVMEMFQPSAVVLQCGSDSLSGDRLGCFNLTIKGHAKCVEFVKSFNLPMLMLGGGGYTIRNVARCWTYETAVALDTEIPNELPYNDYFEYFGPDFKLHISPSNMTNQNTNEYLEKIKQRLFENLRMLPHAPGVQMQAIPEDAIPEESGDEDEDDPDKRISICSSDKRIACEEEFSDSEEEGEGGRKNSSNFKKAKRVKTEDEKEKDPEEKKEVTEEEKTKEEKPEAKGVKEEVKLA

| IC50 (human recombinant HDAC1) [nM] | HDAC6 selectivity (fold) (human recombinant HDAC6) | IC50 (human recombinant HDAC6) [nM] | Compound |
| --- | --- | --- | --- |
| > 50000 | 2,032 fold | 24.6 | CN(C)CCC(=O)N1CC(F)(C(=O)N(Cc2ccc(-c3nnc(C(F)F)o3)cn2)c2ccccc2)C1 [Compound 3006, N-((5-(5-(difluoromethyl)-1,3,4-oxadiazol-2-yl)pyridin-2-yl)methyl)-1-(3-(dimethylamino)propanoyl)-3-fluoro-N-phenylazetidine-3-carboxamide] |
| > 50000 | 875 fold | 57.1 | O=C(N(Cc1ccc(-c2nnc(C(F)F)o2)cn1)c1ccccc1)C1(F)CN(CC2CCOCC2)C1 [Compound 3216] |
| > 50000 | 649 fold | 77 | O=C(N(Cc1ccc(-c2nnc(C(F)F)o2)cn1)c1ccccc1)C1(F)CN(CC2CCCCC2)C1 [Compound 3156, 1-(cyclohexylmethyl)-N-((5-(5-(difluoromethyl)-1,3,4-oxadiazol-2-yl)pyridin-2-yl)methyl)-3-fluoro-N-phenylazetidine-3-carboxamide] |
| > 50000 | 2,212 fold | 22.6 | CCN1CC(F)(C(=O)N(Cc2ccc(-c3nnc(C(F)F)o3)cn2)c2cccc(F)c2)C1 [Compound 3090, N-((5-(5-(difluoromethyl)-1,3,4-oxadiazol-2-yl)pyridin-2-yl)methyl)-1-ethyl-3-fluoro-N-(3-fluorophenyl)azetidine-3-carboxamide] |
| > 50000 | 2,066 fold | 24.2 | O=C(C1CCCCC1)N1CC(F)(C(=O)N(Cc2ccc(-c3nnc(C(F)F)o3)cn2)c2cccc(F)c2)C1 [Compound 3170, 1-(cyclohexanecarbonyl)-N-((5-(5-(difluoromethyl)-1,3,4-oxadiazol-2-yl)pyridin-2-yl)methyl)-3-fluoro-N-(3-fluorophenyl)azetidine-3-carboxamide] |
| > 50000 | 1,377 fold | 36.3 | CC(=O)N1CC(F)(C(=O)N(Cc2ccc(-c3nnc(C(F)F)o3)cn2)c2ccccc2)C1 [Compound 3152, 1-acetyl-N-((5-(5-(difluoromethyl)-1,3,4-oxadiazol-2-yl)pyridin-2-yl)methyl)-3-fluoro-N-phenylazetidine-3-carboxamide] |
| 27500 | 1,374 fold | 20 | O=C(N(Cc1ccc(-c2nnc(C(F)F)o2)cn1)c1cccc(F)c1)C1(F)CN(C2CN(C3CCCCC3)C2)C1 [Compound 3398, 1′-cyclohexyl-N-((5-(5-(difluoromethyl)-1,3,4-oxadiazol-2-yl)pyridin-2-yl)methyl)-3-fluoro-N-(3-fluorophenyl)-[1,3′-biazetidine]-3-carboxamide] |
| > 50000 | 2,272 fold | 22 | O=C(N(Cc1ccc(-c2nnc(C(F)F)o2)cn1)c1ccccc1)C1(F)CN(C2CCSCC2)C1 [Compound 3162, N-((5-(5-(difluoromethyl)-1,3,4-oxadiazol-2-yl)pyridin-2-yl)methyl)-3-fluoro-N-phenyl-1-(tetrahydro-2H-thiopyran-4-yl)azetidine-3-carboxamide] |
| > 50000 | 741 fold | 67.4 | O=C(N(Cc1ccc(-c2nnc(C(F)F)o2)cn1)c1cccc(F)c1)C1(F)CN(CC2CCCCC2)C1 [Compound 3171, 1-(cyclohexylmethyl)-N-((5-(5-(difluoromethyl)-1,3,4-oxadiazol-2-yl)pyridin-2-yl)methyl)-3-fluoro-N-(3-fluorophenyl)azetidine-3-carboxamide] |
| > 50000 | 154 fold | 324 | CS(=O)(=O)N1CCC(F)(C(=O)N(Cc2ccc(-c3nnc(C(F)F)o3)cc2F)c2ccccc2)CC1 [Compound 3442, N-(4-(5-(difluoromethyl)-1,3,4-oxadiazol-2-yl)-2-fluorobenzyl)-4-fluoro-1-(methylsulfonyl)-N-phenylpiperidine-4-carboxamide] |
| > 50000 | 1,059 fold | 47.2 | CCCN1CC(N2CC(F)(C(=O)N(Cc3ccc(-c4nnc(C(F)F)o4)cn3)c3ccccc3)C2)C1 [Compound 3107, N-((5-(5-(difluoromethyl)-1,3,4-oxadiazol-2-yl)pyridin-2-yl)methyl)-3-fluoro-N-phenyl-1′-propyl-[1,3′-biazetidine]-3-carboxamide] |
| > 50000 | 931 fold | 53.7 | CCN1CCC(N2CC(F)(C(=O)N(Cc3ccc(-c4nnc(C(F)F)o4)cn3)c3ccccc3)C2)CC1 [Compound 3111, N-((5-(5-(difluoromethyl)-1,3,4-oxadiazol-2-yl)pyridin-2-yl)methyl)-1-(1-ethylpiperidin-4-yl)-3-fluoro-N-phenylazetidine-3-carboxamide] |
| 30900 | 421 fold | 73.4 | CN1CC(F)(C(=O)N(Cc2ccc(-c3nnc(C(F)F)o3)cc2F)c2ccccc2)C1 [Compound 3429, N-(4-(5-(difluoromethyl)-1,3,4-oxadiazol-2-yl)-2-fluorobenzyl)-3-fluoro-1-methyl-N-phenylazetidine-3-carboxamide] |
| 48000 | 2,581 fold | 18.6 | O=C(N(Cc1ccc(-c2nnc(C(F)F)o2)cn1)c1cccc(F)c1)C1(F)CN(C2CCN(C3CCCC3)CC2)C1 [Compound 3407, 1-(1-cyclopentylpiperidin-4-yl)-N-((5-(5-(difluoromethyl)-1,3,4-oxadiazol-2-yl)pyridin-2-yl)methyl)-3-fluoro-N-(3-fluorophenyl)azetidine-3-carboxamide] |
| > 50000 | 1,901 fold | 26.3 | CC(CO)N1CC(F)(C(=O)N(Cc2ccc(-c3nnc(C(F)F)o3)cn2)c2cccc(F)c2)C1 (stereo not drawn) [Compound 3094, N-((5-(5-(difluoromethyl)-1,3,4-oxadiazol-2-yl)pyridin-2-yl)methyl)-3-fluoro-N-(3-fluorophenyl)-1-(1-hydroxypropan-2-yl)azetidine-3-carboxamide] |
| > 50000 | 1,187 fold | 42.1 | O=C(N(Cc1ccc(-c2nnc(C(F)F)o2)cn1)c1cccc(F)c1)C1(F)CN(CC2CCOCC2)C1 [Compound 3218] |
| 29100 | 366 fold | 79.5 | CC(=O)N1CC(F)(C(=O)N(Cc2ccc(-c3nnc(C(F)F)o3)cc2F)c2ccccc2)C1 [Compound 3432, 1-acetyl-N-(4-(5-(difluoromethyl)-1,3,4-oxadiazol-2-yl)-2-fluorobenzyl)-3-fluoro-N-phenylazetidine-3-carboxamide] |
| > 50000 | 2,717 fold | 18.4 | CC(C)N1CC(N2CCC(F)(C(=O)N(Cc3ccc(-c4nnc(C(F)F)o4)cn3)c3cccc(F)c3)CC2)C1 [Compound 3393, N-((5-(5-(difluoromethyl)-1,3,4-oxadiazol-2-yl)pyridin-2-yl)methyl)-4-fluoro-N-(3-fluorophenyl)-1-(1-isopropylazetidine-3-yl)piperidin-4-carboxamide] |
| > 50000 | 1,543 fold | 32.4 | CC(C)CN1CC(F)(C(=O)N(Cc2ccc(-c3nnc(C(F)F)o3)cn2)c2cccc(F)c2)C1 [Compound 3093, N-((5-(5-(difluoromethyl)-1,3,4-oxadiazol-2-yl)pyridin-2-yl)methyl)-3-fluoro-N-(3-fluorophenyl)-1-isobutylazetidine-3-carboxamide] |
| > 50000 | 2,066 fold | 24.2 | CCCC(=O)N1CC(F)(C(=O)N(Cc2ccc(-c3nnc(C(F)F)o3)cn2)c2cccc(F)c2)C1 [Compound 3165, 1-butyryl-N-((5-(5-(difluoromethyl)-1,3,4-oxadiazol-2-yl)pyridin-2-yl)methyl)-3-fluoro-N-(3-fluorophenyl)azetidine-3-carboxamide] |
